# Reference: patent US6806257B1, “Flavones as inducible nitric oxide synthase inhibitors, cyclooxygenase-2 inhibitors and potassium channel activators” (priority 1999, dated 2004)
# “Also recorded” adds a separate entry of the source. Read-outs that look alike come from different tables or passages of the source.
# Columns and labels:
# [1] = system: porcine cerebral arteries; assay: In vitro tissue bath vasorelaxation of precontracted porcine cerebral arteries
# COX-2 = COX-2 enzyme activity: PGE2 from added arachidonic acid in LPS-treated RAW 264.7 cells; type: cell-based, mouse
# [2] = system: LPS-induced NO production in RAW264.7 macrophages; assay: LPS-induced nitrite (NO) production in RAW264.7 macrophages, Griess reaction; type: cell-based, mouse; conditions: for NO: 24 hours
# Description: (§1) Cells. RAW264.7, a mouse macrophage cell line, was obtained from American Type Culture Collection. Cells were cultured in RPMI-1640 medium (available from Gibco Life Technology, in Gaithersburg, Md.) supplemented with 2 mM L-glutamine, antibiotics (100 units/ml penicillin-A and 100 units/ml streptomycin) and 10% heat-inactivated fetal bovine serum (Gibco/BRL) and maintained at 37° C in a humidified incubator containing 5% CO2.
# Nitrite assay. The nitrite concentration in the medium was measured as an indicator of NO production according to the Griess reaction (Kim et al., J. Immunol. 153: 4741-4748). One hundred microliters of each supernatant was. mixed with the same volume of Griess reagent (1% sulfanilamide in 5% phosphoric acid and 0. 1% naphthylethylenediamine dihydrochloride in water); absorbency of the mixture at 550 nm was determined with an enzyme-linked immunosorbent assay plate reader (Dynatech MR-7000; Dynatech Labs, Chantilly, Va.).
# The effects of flavonoids, ellagitannins, anthraquinones on LPS-induced NO production in macrophages were studied as follows. The chemical structures of two flavonoids (myricitrin, N1; oroxylin A, N2) four ellagitannins (penta-O-galloyl-β-glucopyranose, N3; woodfordin C, N4; onothein B, N5; cuphiin, N6), and two anthraquinones (emodin, N7; physcion, N8) that were used in the present study were shown in FIG. 1. The effects of these eight compounds on NO production in RAW264.7 macrophages were investigated. The accumulated nitrite in the culture medium was used as an index for NO synthesis from these cells. […]
# [3] = system: LPS-induced PGE2 production in RAW 264.7 macrophages; assay: LPS-induced PGE2 production in RAW 264.7 macrophages (co-treatment); type: cell-based, mouse; conditions: for PGE2: 24 hours
# Description: Un-stimulated RAW 264.7 macrophages in culture medium for 24 hours produced basal amount of PGE2 (1.5 ng/mL) in the medium.
# iNOS [4] = assay: Indirect iNOS enzyme assay: NO in medium of LPS-pretreated intact RAW 264.7 cells; type: cell-based, mouse
# iNOS [5] = assay: LPS-induced iNOS expression in RAW264.7 macrophages (western/northern blot); type: cell-based, mouse; conditions: NLA (or L-NAME) plus LPS co-treated
# Description: as §1
# (§2) Western blots. Total cellular extract, cytosolic fractions (for IkB) and nuclear fraction (for p65 antibody) were prepared according to Muller et al., Immunobiology, 187, 233-256, 1993 and separated on sodium dodecyl sulfatepolyacrylamide minigels (8% for iNOS or COX-2, and 10% for IkB or p65) and transferred to immobilon polyvinylidene difluoride membranes (Millipore, Bedford, Mass.). The membrane was incubated overnight at 4° C. with 1% bovine serum albumin and then incubated with anti-iNos, COX-2, α-Tubulin monoclonal antibodies (Transduction Laboratories, Lexington, Ky.), anti-IkB or anti-p65 polyclonal antibodies (Santa Cruz Biochemicals, Santa Cruz, Calif.). iNOS, IkB, p65, Cox-2, α-Tubulin were detected by NBT and BCIP staining (Sigma Chemical Co., St. Louis, Mo.).
# Northern blot analysis. Total RNA (20 μg/lane) were separated by electrophoresis on 1.2% agarose gel containing 6.7% formaldehyde and transformed to a Hybond-N nylon membrane (American Life Science) in 20×standard saline citrate (3 M sodium chloride and 0.3 M sodium citrate, pH 7.0). After heating at 80° C. for 2 hours and prehybridization for 4 hours, the filters were hybridized with ^32P-labeled murine iNOS cDNA probes at a concentration of 3×10^6 cpm/ml for 16-18 hours at 42° C. The probe was labeled with [α-32P] dCTP by using Random Primer labeling kit (Stratagene, La Jolla, Calif.). Then, the filters were washed, dried and autoradiographed with Kodak-X-Omat XAR-film using intensifying screens at −80° C.
# NF-kB (p65) / IkB = assay: Nuclear p65 / cytosolic IkB western blot in LPS-treated RAW264.7 macrophages; type: cell-based, mouse; conditions: 20 μg/ml, 100 ng/ml LPS for 30 minutes
# Description: as §2
# NF-kB is a transcription factor that is activated in response to stimulation by LPS, and activation of NF-kB is an essential factor in inducing iNOS gene expression in macrophages (Kim, Y. M., Biochem. Biophys. Res. Commun. 236, 655-660, 1997). To assess the effect of these compounds (20 μg/ml) on early stage of iNOS gene expression, the activation of NF-kB in RAW264.7 macrophages was examined using the electrophoretic mobility shift assay (EMSA) (FIGS. 6i and 6ii).
# [6] = arteries without endothelial cells, U-46619
# [7] = LPS + L-NAME (2 mM) + compound 40 μM
# [8] = LPS + NLA (2 mM) + compound 40 μM
compound,measurement,setting,value
"Cc1cnc(C(=O)NCCc2ccc(S(=O)(=O)NC(=O)NC3CCCCC3)cc2)cn1 [glipizide, reference compound]",effect of the blocker/inhibitor on oroxylin A-induced relaxation,[1]; [6],did not affect
"COc1ccc2c(c1)c(CC(=O)O)c(C)n2C(=O)c1ccc(Cl)cc1 [indomethacin, reference compound]",PGE2,"COX-2; 20 μM for 30 min after LPS 6 hours, then arachidonic acid (100 μM) 15 min",2.0 ± 0.7 ng/mL
same,PGE2 production using added arachidonic acid as a substrate,COX-2; added after COX-2 induction by LPS,significantly inhibited
"COc1c(O)cc(O)c2c(=O)cc(-c3ccccc3)oc12 [wogonin, 5,7-dihydroxy-8-methoxy flavone]",NO,[2]; [7],6.8 ± 0.5 μmole/4 × 10^5
same,NO,[2]; [8],6.7 ± 0.7 μmole/4 × 10^5
same,LPS-induced nitrite production,[2]; different concentrations together with LPS for 24 hours,significant concentration-dependent inhibition
same,PGE2,[3]; [7],2.3 ± 0.7 ng/mL
same,PGE2,[3]; [8],2.1 ± 0.4 ng/mL
same,LPS-induced PGE2 production,"[3]; co-treatment 20 and 40 μM, LPS (100 ng/mL) 24 hours",inhibited
same,NO in medium,iNOS [4]; 20 μM added for 12 hours after LPS (100 ng/ml) 12 hours pretreatment,16.5 ± 0.3 μM/6 × 10^5 cells
same,NO in medium,iNOS [4]; 40 μM added for 12 hours after LPS (100 ng/ml) 12 hours pretreatment,16.3 ± 0.3 μM/6 × 10^5 cells
same,increased expression of iNOS in NLA or L-NAME plus LPS treated cells,iNOS [5],inhibited
"Iberiotoxin (QFTDVDCSVSKECWSVCKDLFGVDRGKCMGKKCRCYQ; UniProt P24663 1-37, looked up) [reference compound]",effect of the blocker/inhibitor on oroxylin A-induced relaxation,[1]; [6],slightly but significantly inhibited
cuphiin D1,LPS-induced increase of nuclear p65 and decrease of cytosolic IkB,NF-kB (p65) / IkB,did not block
oenothein B,LPS-induced increase of nuclear p65 and decrease of cytosolic IkB,NF-kB (p65) / IkB,significantly inhibited
"tetraethylammonium [TEA, reference compound]",effect of the blocker on oroxylin A-induced relaxation,[1],significantly shifted the oroxylin A concentration response curves to the right; also recorded: almost abolished
same,effect of the blocker/inhibitor on oroxylin A-induced relaxation,[1],concentration-dependently (1-10 mM) inhibited; also recorded: blocked
